From publication PMC9233935 (Journal of medicinal chemistry, 2022)
≈ marks a conversion by molar mass, not a printed value.

Assays:
S. aureus ATTC 25923 [1] = tested on: S. aureus ATTC 25923
M. tuberculosis H37Rv = assay: microbe, parasite or virus in culture; format: cell-based, Mycobacterium tuberculosis
S. aureus ATTC 25923 [2] = assay: microbe, parasite or virus in culture; settings: Staphylococcus aureus, ATTC25923, read-out: Sau MIC
Mtb gyrase = Mtb gyrase (Mycobacterium tuberculosis, UniProt P9WG45+P9WG47); assay: biochemical; format: biochemical
[3] = tested on: gyrA hypomorph (gyrA-FDAS-TetON-1); format: cell-based; settings: fold-hypersensitivity

Sequence of Mtb gyrase (P9WG45 whole entry, looked up): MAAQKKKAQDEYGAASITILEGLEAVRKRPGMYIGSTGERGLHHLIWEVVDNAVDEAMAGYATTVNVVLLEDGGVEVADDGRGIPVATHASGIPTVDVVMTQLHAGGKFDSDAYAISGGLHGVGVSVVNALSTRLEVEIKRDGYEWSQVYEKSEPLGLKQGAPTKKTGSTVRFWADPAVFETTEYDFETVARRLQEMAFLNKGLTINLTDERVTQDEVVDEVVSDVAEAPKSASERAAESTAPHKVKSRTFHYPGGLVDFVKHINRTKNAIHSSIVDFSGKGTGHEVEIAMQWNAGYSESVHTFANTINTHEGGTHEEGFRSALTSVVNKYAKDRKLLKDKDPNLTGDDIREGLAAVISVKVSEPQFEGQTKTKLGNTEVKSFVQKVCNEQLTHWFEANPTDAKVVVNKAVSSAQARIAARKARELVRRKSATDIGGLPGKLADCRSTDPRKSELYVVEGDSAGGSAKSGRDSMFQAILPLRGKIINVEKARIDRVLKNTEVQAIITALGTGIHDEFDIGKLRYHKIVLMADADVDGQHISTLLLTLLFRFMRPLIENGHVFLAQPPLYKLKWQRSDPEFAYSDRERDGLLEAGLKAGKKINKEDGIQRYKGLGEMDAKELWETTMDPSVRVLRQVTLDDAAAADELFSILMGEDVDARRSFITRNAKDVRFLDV
Sequence of Mtb gyrase (P9WG47 whole entry, looked up): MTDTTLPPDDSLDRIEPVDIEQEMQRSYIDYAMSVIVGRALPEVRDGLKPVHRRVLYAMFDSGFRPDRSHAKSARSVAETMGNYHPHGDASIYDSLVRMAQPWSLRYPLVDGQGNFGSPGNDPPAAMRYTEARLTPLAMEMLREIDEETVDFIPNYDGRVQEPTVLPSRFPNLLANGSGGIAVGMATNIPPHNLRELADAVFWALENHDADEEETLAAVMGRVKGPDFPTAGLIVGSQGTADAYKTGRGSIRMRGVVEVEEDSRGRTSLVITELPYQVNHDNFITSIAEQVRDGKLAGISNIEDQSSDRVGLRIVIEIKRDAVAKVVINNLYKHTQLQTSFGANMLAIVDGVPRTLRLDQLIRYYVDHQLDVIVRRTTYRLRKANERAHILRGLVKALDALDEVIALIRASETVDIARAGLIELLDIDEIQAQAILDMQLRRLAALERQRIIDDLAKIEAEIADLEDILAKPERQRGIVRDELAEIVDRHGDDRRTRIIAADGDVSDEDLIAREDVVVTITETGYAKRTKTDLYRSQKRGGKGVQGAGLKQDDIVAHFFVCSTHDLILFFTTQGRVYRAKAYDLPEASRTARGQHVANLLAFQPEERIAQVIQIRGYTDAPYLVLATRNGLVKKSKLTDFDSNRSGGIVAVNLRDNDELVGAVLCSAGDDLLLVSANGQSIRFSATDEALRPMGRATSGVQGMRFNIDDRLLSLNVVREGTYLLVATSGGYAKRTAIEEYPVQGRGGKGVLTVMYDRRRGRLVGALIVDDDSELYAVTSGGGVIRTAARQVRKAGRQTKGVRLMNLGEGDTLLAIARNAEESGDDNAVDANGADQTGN

Molecule	MIC (S. aureus ATTC 25923 [2])	Ratio (WT/hypomorph) MIC [3]	Ratio (WT/hypomorph) MIC50 [3]	also measured
(2R,4S,4aS)-11-fluoro-2,4-dimethyl-8-((S)-3-(methylamino)pyrrolidin-1-yl)-1,2,4,4a-tetrahydro-2’H-spiro[isoxazolo[5’,4’:4,5]benzo[1,2-b][1,4]oxazino[4,3-d][1,4]oxazine-5,5’-pyrimidine]-2’,4’,6’(1’H,3’H)-trione [Compound 17]				Sau MIC (S. aureus ATTC 25923 [1]): 125 µM; Mtb MIC (M. tuberculosis H37Rv): 63 µM; fold higher Mtb MIC compared to 8 (M. tuberculosis H37Rv): 9 to16 fold
C[C@@H]1CN2c3c(cc4c(OC[C@H]5CCC(=O)N5)noc4c3F)CC3(C(=O)NC(=O)NC3=O)[C@H]2[C@H](C)O1 [Compound 24, (2R,4S,4aS)-11-fluoro-2,4-dimethyl-8-(((R)-5-oxopyrrolidin-2-yl)methoxy)-1,2,4,4a-tetrahydro-2’H,6H-spiro[isoxazolo[4,5-g][1,4]oxazino[4,3-a]quinoline-5,5’-pyrimidine]-2’,4’,6’(1’H,3’H)-trione]	> 125 µM			
C[C@@H]1CN2c3c(cc4c(OC[C@@H]5COC(=O)N5)noc4c3F)CC3(C(=O)NC(=O)NC3=O)[C@H]2[C@H](C)O1 [Compound 28, (2R,4S,4aS)-11-fluoro-2,4-dimethyl-8-(((R)-2-oxooxazolidin-4-yl)methoxy)-1,2,4,4a-tetrahydro-2’H,6H-spiro[isoxazolo[4,5-g][1,4]oxazino[4,3-a]quinoline-5,5’-pyrimidine]-2’,4’,6’(1’H,3’H)-trione]	63 µM (≈ 31.7 µg/mL)			
C[C@@H]1CN2c3c(cc4c(N5CC[C@H](O)C5)noc4c3F)CC3(C(=O)NC(=O)NC3=O)[C@H]2[C@H](C)N1C#N [Compound 40, (2R,4S,4aS)-11-fluoro-8-((S)-3-hydroxypyrrolidin-1-yl)-2,4-dimethyl-2’,4’,6’-trioxo-1,1’,2,3’,4,4a,4’,6’-octahydro-2’H,3H,6H-spiro[isoxazolo[4,5-g]pyrazino[1,2-a]quinoline-5,5’-pyrimidine]-3-carbonitrile]	> 125 µM	2.0	3.1	IC50 (Mtb gyrase): 19 µM
C[C@@H]1CN2c3c(cc4c(N5C[C@H](O)[C@@H](O)C5)noc4c3F)CC3(C(=O)NC(=O)NC3=O)[C@H]2[C@H](C)O1 [Compound 11, (2R,4S,4aS)-8-((3S,4S)-3,4-dihydroxypyrrolidin-1-yl)-11-fluoro-2,4-dimethyl-1,2,4,4a-tetrahydro-2’H,6H-spiro[isoxazolo[4,5-g][1,4]oxazino[4,3-a]quinoline-5,5’-pyrimidine]-2’,4’,6’(1’H,3’H)-trione]	> 125 µM			
C[C@@H]1CN2c3c(cc4c(N5C[C@@H](O)[C@H](O)C5)noc4c3F)CC3(C(=O)NC(=O)NC3=O)[C@H]2[C@H](C)O1 [Compound 10, (2R,4S,4aS)-8-((3R,4R)-3,4-dihydroxypyrrolidin-1-yl)-11-fluoro-2,4-dimethyl-1,2,4,4a-tetrahydro-2’H,6H-spiro[isoxazolo[4,5-g][1,4]oxazino[4,3-a]quinoline-5,5’-pyrimidine]-2’,4’,6’(1’H,3’H)-trione]		2.1	2.9	Mtb gyrase IC50 fold higher (less potent) than moxifloxacin (Mtb gyrase): ≤ 2 fold
C[C@@H]1CN2c3c(cc4c(N5CC[C@@H](O)C5)noc4c3F)CC3(C(=O)NC(=O)NC3=O)[C@H]2[C@H](C)O1 [Compound 9, (2R,4S,4aS)-11-fluoro-8-((R)-3-hydroxypyrrolidin-1-yl)-2,4-dimethyl-1,2,4,4a-tetrahydro-2’H,6H-spiro[isoxazolo[4,5-g][1,4]oxazino[4,3-a]quinoline-5,5’-pyrimidine]-2’,4’,6’(1’H,3’H)-trione]	64 µM (≈ 30.3 µg/mL)			
C[C@@H]1CN2c3c(cc4c(N5CC[C@H](O)C5)noc4c3F)CC3(C(=O)NC(=O)NC3=O)[C@H]2[C@H](C)O1 [Compound 8, (2R,4S,4aS)-11-fluoro-8-((S)-3-hydroxypyrrolidin-1-yl)-2,4-dimethyl-1,2,4,4a-tetrahydro-2’H,6H-spiro[isoxazolo[4,5-g][1,4]oxazino[4,3-a]quinoline-5,5’-pyrimidine]-2’,4’,6’(1’H,3’H)-trione]		2.5	3.6	Mtb gyrase IC50 fold higher (less potent) than moxifloxacin (Mtb gyrase): ≤ 2 fold; fold less active against S. aureus than zoliflodacin (S. aureus ATTC 25923 [1]): > 200 fold
